According to paper PMC9838834, “Improvement of Antialveolar echinococcosis efficacy of novel Albendazole-Bile acids Derivatives with Enhanced Oral Bioavailability” (PLOS Neglected Tropical Diseases, 2023):

Columns and labels:
protoscolex (PSCs) [1] = assay: Protoscolex microstructure by optical microscope and SEM; format: cell-based, E. multilocularis; conditions: 5 days after treatment, 10 μg/mL
Description: (§1) Protoscoleces (PSCs) from E. multilocularis were collected aseptically from alveolar echinococcosis obtained from the abdominal cavity of gerbils in Qinghai Research Key Laboratory for Echinococcosis, China. The specific operation steps were as follows: (1) dissect the successfully preserved Echinococcus protoscoleces gerbil model, isolate cysts and wash the residual liver tissue and blood with sterile Penicillin-Streptomycin solution (penicillin (1500 U/ mL) + streptomycin (1000 U/ mL)). (2) Place the clean cysts in sterile glassware, cut them into a slurry, filter the original head section with sterile gauze, and rinse them with Penicillin-Streptomycin solution 3 times. (3) Slightly rotate and shake the filtrate, absorb the suspended connective tissue, impurities, inactivated PSCs, and excess Penicillin-Streptomycin solution in the upper layer, repeat several times and finally concentrate the pure PSCs into the test tube. Viability was assessed by muscular movement (evaluated under an optical microscope), the motility of flame cells, and the exclusion test with methylene blue. The PSCs were incubated in an RPMI 1640 medium containing 0.20 mg/mL liver homogenous serous, 100 U/mL penicillin, 100 μg/mL streptomycin and 10% calf serum at 37°C in a 5% CO2 atmosphere at a concentration of (1000–2000) PSCs/mL.
(§2) The PSCs were divided into blank control groups (Groups 1 and 2), positive control groups (Groups 3 and 4), and experimental groups (Groups 5 to 7). Group 1 was RPMI-1640 medium with 0.20 mg/mL liver homogenate; Group 2 was 0.2% DMSO medium with 0.2% DMSO; Group 3 was RPMI-1640 medium with 0.20 mg/mL liver homogenate and 0.2% DMSO, containing 10 μg/mL Albendazole; Group 4 was RPMI-1640 medium with 0.20 mg/mL liver homogenate and 0.2% DMSO, containing 10 μg/mL albendazole sulfoxide; Groups 5–7 were RPMI-1640 medium with 0.20 mg/mL liver homogenate and 0.2% DMSO, containing 13.45, 26.9 and 53.8 μg/mL ABZ-BA, with effective ABZ concentrations of 5, 10 and 20 μg/mL, respectively. The culture medium and drug were changed every 3 days for one week. PSCs samples (10 μL) were collected every day and stained with 0.4% trypan blue staining solution, observed under an inverted microscope, and photographed to record PSC mortality.
For ultrastructural studies, 200 μL PSCs were taken from each group 5 days after treatment and fixed with 4% glutaraldehyde in sodium cacodylate buffer at 4°C for 72 hours. Samples were dehydrated by continuous incubation in increasing concentrations of ethanol (50–100%), and ethanol was removed by supercritical extraction. They were then sputter-coated with gold (100 Å thick) and examined on an FEI Quanta 200 scanning electron microscope operating at 20 kV.

protoscolex (PSCs) [2] = assay: Detection of protoscolex mortality / survival rate in vitro (trypan blue); format: cell-based, E. multilocularis; conditions: 7 days; ABZ 10 μg/mL, ABZ-SO 10 μg/mL, ABZ-BA 13.45, 26.9, 53.8 μg/mL; liver homogenate + 0.2% DMSO; n = 3
Description: as §1, §2

[3] = Systemic pharmacokinetics in SD rats (UHPLC-MS); format: in vivo, Sprague-Dawley (SD) rats; conditions: SD rats, oral 25 mg/kg
Procedure: A Dionex Ultimate 3000 RSLC system (Thermofisher) combined with an Accucore aQ C18 column (150 mm×2.1 mm, 2.6 μm, Thermo fisher) was used in the sample separation process. The separation speed was set at […] for all gradients. 1 μL of injection volume and a constant temperature of (25 ± 1°C were set for the column. The eluents were A, water with 0.1% formic acid (v/v) and B, methanol; the gradient program was as follows: 0–6 min, 8–40% B; 6–8 min, 40–100% B; 8–10 min, 100% B; 10–11 min, 100–8% B; 11–13 min, 8% B.
Heated electro-spray ionization (HE-SI) was paired with a Q-Orbitrap MS in the MS analysis. The flow rate of auxiliary, sheath and sweep gas was set at 35, 10, and 1 (arbitrary unit), respectively. A full MS-ddMS^2 mode was used to perform the analysis. The damping gas in the C-trap and nitrogen was used to stabilize the spraying. Temperatures of 350°C and 320°C were set and kept for the auxiliary gas heater and capillary. Under negative mode, 3.0 kV was adopted for the spray voltage, 60 V was used for the S-lens RF level, 50 ms was used for the maximum injection time, and 3.0 ^e6 was set as the automatic gain control target. Full MS-ddMS^2 scan ranged from 150.0000 to 800.0000 m/z. Precise molecular weight […] was used for qualitative analysis, the corresponding peak area was used for quantitative analysis, and MS^2 fragments were used for further qualitative analysis.
A cross-over design was employed with male SD rats (n = 7) to evaluate in vivo pharmacokinetics. The rats were subjected to fasting for one night before each administration and were fed 4 hours after administration. ABZ was administered by gavage (25 mg/kg). Blood was collected under isoflurane anesthesia at a flow rate of 2.0 mL/min. At 0.25, 0.5, 1, 2, 2.5, 3, 4, 6, 8, 12, and 24 hours after administration, 200–500 μL blood was collected from the orbital venous plexus and centrifuged at 13000 rpm for 5 min. The upper plasma was stored at—80°C for testing.
Plasma samples were thawed at room temperature, and 100 μL was added to an equal volume of mass spectrometry grade methanol, vortexed for 1 min, and centrifuged again at 13000 rpm for 5 min. 100 μL of the supernatant were added to 100 μL of 200 ng/mL mebendazole IS solution, vortexed for 1 min, and centrifuged again at 13000 rpm for 5 min. The resulting sample was injected by UHPLC-HR-ESI-MS with an injection volume of 1 μL. The pharmacokinetic study of SD rats was performed according to the standards recommended by the "Guidelines for the Care and Use of Laboratory Animals" (Animal Laboratory Resources Institute, 1995) and was approved by the Institutional Animal Care and Use Committee of Qinghai University.

CCC[S+]([O-])c1ccc2[nH]c(NC(=O)OC)nc2c1 (stereo not shown) [ABZ-SO, albendazole sulfoxide]
PSC morphology under the SEM (protoscolex (PSCs) [1]): elongated and curled up | PSC morphology under the optical microscope (OM) (protoscolex (PSCs) [1]): became vacuolar and transparent | mortality of PSCs (protoscolex (PSCs) [1]; vs blank groups): significantly higher than in the blank groups | inhibitory effect on PSC survival rate (protoscolex (PSCs) [2]): time and concentration-dependent inhibitory effects

CCCSc1ccc2[nH]c(NC(=O)OC)nc2c1 [Abz]
detection in plasma 24 hours after administration [3]: still detected | shape of the drug time curve [3]: double-peak | Frel (relative bioavailability) = AUCAbz(0–24)/AUCABZ (0–24) ([3]; n = 7): 2613%
